We go through five molecules from paper PMC10449621, “Engineering cellular communication between light-activated synthetic cells and bacteria” (Nature Chemical Biology, 2023).

For experiment [1], the system named is BjaRS107R (B0033|ATG) receiver cells. Briefly: BjaR receiver cell AHSL dose-response (gfp reporter, plate reader). In kind it is cell-based, E. coli XL10-Gold. From the text:
(§1) These findings are consistent with the predicted translation initiation rates of the respective sequences—translation from the BBa_B0033 RBS provides 1% of protein yield compared to the BBa_B0034 RBS, just as an CTG start codon provides 1% of the protein yield compared to an ATG start codon[30],[31]. This also offers support as to why the ON-state gfp expression level increased in variants with a tighter OFF-state; more cellular resources were available for GFP synthesis when comparatively fewer were allocated to BjaR synthesis. To elucidate the impact of the S107R variant on gene circuit performance, we introduced the S107R variant alone back into the bjaRWT gene, in the context of the BBa_B0033 RBS background.
(§2) In addition to quantifying how these BjaR receiver cells responded to their branched, cognate ligand, we also sought to determine whether the BjaR receiver cells could be activated by structurally dissimilar AHSLs involved in the LuxI/R, EsaI/R, LasI/R and RhlI/R QS systems previously used in synthetic cell communication[5],[7],[8]. To this end, we measured the fluorescence of BjaR receiver cells grown in the presence of their activators, 3OC6-HSL, 3OC12-HSL and C4-HSL, respectively (Supplementary Fig. 13a).
(§3) The BjaR reporter plasmids were retransformed into E. coli XL10-Gold cells for each experiment. A single colony was used to inoculate 5 ml LB + Amp media and incubated at 37 °C, 225 r.p.m. overnight. Overnight cultures were diluted 1/250 or 1/500 in 5 ml M9 minimal media + Amp and incubated at 37 °C, 225 r.p.m. for 3 h and 45 min (until OD600 = ~0.075). Cultures were diluted down to OD600 = 0.05 with M9 minimal media + Amp, and 200 µl was added to wells of a 96-well plate containing 1 µl IV-HSL dissolved in DMSO or 1 µl BjaI CFPS reactions (IV-HSL concentrations obtained from serial dilution from 63.2 µM to 632 pM; final DMSO concentration = 0.5%). Cells were incubated at 37 °C, 800 r.p.m., in a thermomixer with a heated lid for 4 h. Fluorescence and OD600 were measured in a Tecan M1000 infinite plate reader (excitation, 488 nm; emission, 510 nm; bandwidth, 5 nm; gain, 101 and z position, 21,311 µm). The dose–response curves were fitted to the function indicated by Eq. (1), where a = maximal fluorescence output, b = basal fluorescence output, X = concentration of AHSL, GFP = fluorescence at the given condition, EC50 = AHSL at 50% maximal fluorescence output and h = hill coefficient. EC50 and h were derived using the nonlinear regression model based on Eq. (1), in MATLAB. A summary of the dose–response data is available in Supplementary Table 1.1 GFP=b+a−b/1+10^logEC50−X×h

Experiment [2] deals with BjaRWT (B0033|ATG) receiver cells. The experiment is described as above. Conditions: for Mean normalised fluorescence / Normalised fluorescence / GFP: sheet 3e; for Normalised fluorescence / GFP: Expt1-3; for GFP: raw fluorescence ex 488/em 510 nm. In kind it is cell-based, E. coli XL10-Gold.
Excerpt: as §1, §2, §3

Values joined by “and” are separate entries in the source; they are usually repeats but may differ in a detail not shown here. Identical values can stand only once. “Also recorded” adds a separate entry of the source.

`CCCC(=O)CC(=O)N[C@H]1CCOC1=O` [3OC6-HSL, N-(3-oxo-hexanoyl)-L-homoserine lactone]: the results for the “gfp expression in response to non-cognate AHSL” value in experiment [1] and in experiment [2] were “minimal GFP was produced” and “did not express gfp; also recorded: minimal GFP was produced”, respectively.
As to `CCCCCCCCCCCC(=O)N[C@H]1CCOC1=O` [C12-HSL], the Mean normalised fluorescence is reported as 3660.47 in experiment [2] (Log([ASHL]) -6.5); 1319.41 in experiment [2] (Log([ASHL]) -7); 1262.26 in experiment [2] (Log([ASHL]) -7.5); 1041.4 in experiment [2] (Log([ASHL]) -8); 1040.51 in experiment [2] (Log([ASHL]) -8.5); 1031.28 in experiment [2] (Log([ASHL]) -9). For the same molecule, the Mean normalised fluorescence in experiment [2] (Log([ASHL]) -9.5) was determined as 1017.68; in experiment [2] (Log([ASHL]) -10) it was 1062.17; in experiment [2] (Log([ASHL]) -10.5) it was 1063.23; in experiment [2] (Log([ASHL]) -11), 1104.13; in experiment [2] (Log([ASHL]) -11.5), 1958.08. Further, the Normalised fluorescence in experiment [2] (Log([ASHL]) -7) was 1877.08 and 986.388 and 1094.76; in experiment [2] (Log([ASHL]) -7.5), 1653.64 and 971.756 and 1161.39; in experiment [2] (Log([ASHL]) -8), 1139.61 and 918.045 and 1066.55; in experiment [2] (Log([ASHL]) -8.5) it was 943.135 and 1084.52 and 1093.88; in experiment [2] (Log([ASHL]) -9), 984.805 and 1073.68 and 1035.35; in experiment [2] (Log([ASHL]) -9.5) it was 918.306 and 1057.93 and 1076.79. In addition, the Normalised fluorescence in experiment [2] (Log([ASHL]) -10) was 938.8 and 1069.72 and 1178; in experiment [2] (Log([ASHL]) -10.5), 1055.63 and 1095.89 and 1038.16; in experiment [2] (Log([ASHL]) -11), 961.19 and 1115.34 and 1235.86. Moreover, the GFP is 569 and 370 and 480 in experiment [2] (Log([ASHL]) -7); 519 and 366 and 490 in experiment [2] (Log([ASHL]) -7.5); 388 and 367 and 474 in experiment [2] (Log([ASHL]) -8); 358 and 472 and 378 in experiment [2] (Log([ASHL]) -8.5); 376 and 464 and 363 in experiment [2] (Log([ASHL]) -9); 351 and 459 and 368 in experiment [2] (Log([ASHL]) -9.5). The GFP in experiment [2] (Log([ASHL]) -10) is 357 and 459 and 389; in experiment [2] (Log([ASHL]) -10.5), 379 and 459 and 370; in experiment [2] (Log([ASHL]) -11), 359 and 475 and 401; in experiment [2] (Log([ASHL]) -11.5) it was 637 and 706 and 473.
Regarding `CCCCCC(=O)N[C@H]1CCOC1=O` [C6HSL], the Mean normalised fluorescence in experiment [2] (Log([ASHL]) -6.5) came to 1368.65; in experiment [2] (Log([ASHL]) -7), 1069.59; in experiment [2] (Log([ASHL]) -7.5), 1072.17; in experiment [2] (Log([ASHL]) -8) it was 1019.8; in experiment [2] (Log([ASHL]) -8.5) it was 1002.73; in experiment [2] (Log([ASHL]) -9), 1027.01. Besides, the Mean normalised fluorescence in experiment [2] (Log([ASHL]) -9.5) turned out to be 1017.95; in experiment [2] (Log([ASHL]) -10), 1072.17; in experiment [2] (Log([ASHL]) -10.5), 1041.96; in experiment [2] (Log([ASHL]) -11), 1037.02; in experiment [2] (Log([ASHL]) -11.5), 1058.71. Besides, the Normalised fluorescence in experiment [2] (Log([ASHL]) -6.5) was 1655.84 and 1049.46 and 1400.63; in experiment [2] (Log([ASHL]) -7), 1188.52 and 915.717 and 1104.54; in experiment [2] (Log([ASHL]) -7.5), 1112.94 and 960.351 and 1143.21; in experiment [2] (Log([ASHL]) -8) it was 1032.26 and 951.298 and 1075.83; in experiment [2] (Log([ASHL]) -8.5) it was 909.599 and 1094.09 and 1004.49; in experiment [2] (Log([ASHL]) -9), 916.088 and 1080.14 and 1084.79. In addition, the Normalised fluorescence in experiment [2] (Log([ASHL]) -9.5) is 932.091 and 1057.66 and 1064.1; in experiment [2] (Log([ASHL]) -10), 960.615 and 1126.04 and 1129.87; in experiment [2] (Log([ASHL]) -10.5), 969.437 and 1060.85 and 1095.6; in experiment [2] (Log([ASHL]) -11), 937.562 and 1077.9 and 1095.59; in experiment [2] (Log([ASHL]) -11.5), 974.837 and 1085.17 and 1116.13. The GFP in experiment [2] (Log([ASHL]) -6.5) was 525 and 399 and 567; in experiment [2] (Log([ASHL]) -7) it was 407 and 365 and 478; in experiment [2] (Log([ASHL]) -7.5), 387 and 361 and 491; in experiment [2] (Log([ASHL]) -8), 373 and 371 and 472; in experiment [2] (Log([ASHL]) -8.5) it was 364 and 473 and 363; in experiment [2] (Log([ASHL]) -9) it was 364 and 464 and 378. The GFP is 365 and 455 and 371 in experiment [2] (Log([ASHL]) -9.5); 370 and 475 and 378 in experiment [2] (Log([ASHL]) -10); 369 and 456 and 376 in experiment [2] (Log([ASHL]) -10.5); 358 and 462 and 368 in experiment [2] (Log([ASHL]) -11); 366 and 368 and 469 in experiment [2] (Log([ASHL]) -11.5).
Turning to `CCCCCCCCCC(=O)CC(=O)N[C@H]1CCOC1=O` [3OC12-HSL], the “gfp expression in response to non-cognate AHSL” value is recorded as “minimal GFP was produced” in experiment [1] and “did not express gfp; also recorded: minimal GFP was produced” in experiment [2].
For `CCCC(=O)N[C@H]1CCOC1=O` [C4HSL], the Mean normalised fluorescence in experiment [2] (Log([ASHL]) -6.5) amounted to 89755.1; in experiment [2] (Log([ASHL]) -7), 24851.4; in experiment [2] (Log([ASHL]) -7.5) it was 5633.53; in experiment [2] (Log([ASHL]) -8), 2030.88; in experiment [2] (Log([ASHL]) -8.5), 1297.09; in experiment [2] (Log([ASHL]) -9), 1170.67. Also, the Mean normalised fluorescence is 1170.76 in experiment [2] (Log([ASHL]) -9.5); 1105.3 in experiment [2] (Log([ASHL]) -10); 1140.47 in experiment [2] (Log([ASHL]) -10.5); 1127.16 in experiment [2] (Log([ASHL]) -11); 1165.29 in experiment [2] (Log([ASHL]) -11.5). In addition, the Normalised fluorescence in experiment [2] (Log([ASHL]) -6.5) is 87597.7 and 86111.2 and 95556.3; in experiment [2] (Log([ASHL]) -7), 25795.6 and 21987 and 26771.5; in experiment [2] (Log([ASHL]) -7.5), 5943.36 and 4742.76 and 6214.47; in experiment [2] (Log([ASHL]) -8), 2169.85 and 1704.52 and 2218.28; in experiment [2] (Log([ASHL]) -8.5), 1166.04 and 1369.65 and 1355.57; in experiment [2] (Log([ASHL]) -9), 1077.7 and 1245.14 and 1189.19. The Normalised fluorescence in experiment [2] (Log([ASHL]) -9.5) is 1086.47 and 1200.78 and 1225.03; in experiment [2] (Log([ASHL]) -10), 1065.28 and 1106.75 and 1143.86; in experiment [2] (Log([ASHL]) -10.5) it was 1078 and 1145.04 and 1198.38; in experiment [2] (Log([ASHL]) -11), 1056.83 and 1148.2 and 1176.47; in experiment [2] (Log([ASHL]) -11.5) it was 1094.25 and 1223.38 and 1178.24. Also, the GFP in experiment [2] (Log([ASHL]) -6.5) was 21193 and 21411 and 30615; in experiment [2] (Log([ASHL]) -7), 6504 and 5697 and 8639; in experiment [2] (Log([ASHL]) -7.5), 1544 and 1323 and 2047; in experiment [2] (Log([ASHL]) -8) it was 628 and 544 and 810; in experiment [2] (Log([ASHL]) -8.5), 416 and 558 and 438; in experiment [2] (Log([ASHL]) -9) it was 387 and 507 and 403. Besides, the GFP in experiment [2] (Log([ASHL]) -9.5) is 387 and 492 and 393; in experiment [2] (Log([ASHL]) -10), 377 and 461; in experiment [2] (Log([ASHL]) -10.5), 375 and 468 and 384; in experiment [2] (Log([ASHL]) -11), 372 and 467 and 379; in experiment [2] (Log([ASHL]) -11.5) it was 376 and 387 and 476.
